Source: ChEMBL document CHEMBL5233242, “Dihydrofolate reductase inhibitors for use as antimicrobial agents” (Eur J Med Chem, 2020)
In brackets after ≈: the same amount, converted by molar mass. Several values for one entry are separate records, joined by “and”; a condition that tells them apart may be missing. Equal values may be shown once.

How the values were obtained:
[1] = Inhibition of Staphylococcus aureus DHFR F98Y mutant
Dihydrofolate reductase [2] = molecular target: T1, Dihydrofolate reductase (Mycobacterium tuberculosis, UniProt P9WNX1)
T1 sequence (P9WNX1 whole entry): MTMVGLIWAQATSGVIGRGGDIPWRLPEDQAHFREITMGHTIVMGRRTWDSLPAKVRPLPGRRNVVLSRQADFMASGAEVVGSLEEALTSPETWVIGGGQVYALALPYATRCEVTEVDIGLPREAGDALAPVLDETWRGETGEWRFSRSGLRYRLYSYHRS
Description: Inhibition of Mycobacterium tuberculosis DHFR

[3] = test system: Mycobacterium tuberculosis; assay: Antibacterial activity against Mycobacterium tuberculosis H37Rv incubated for 7 days by resazurin dye based broth microdilution assay; assay type: functional; conditions: 168 h, time 7 day
[4] = test system: Mycobacterium tuberculosis; assay: Antibacterial activity against Mycobacterium tuberculosis H37Rv; assay type: functional
[5] = test system: Mycobacterium tuberculosis; assay: Antibacterial activity against Mycobacterium tuberculosis Erdman; assay type: functional
Escherichia coli [6] = assay: Antibacterial activity against Escherichia coli ATCC 25922; assay type: functional
Escherichia coli [7] = assay: Antibacterial activity against Escherichia coli NR698; assay type: functional
[8] = Cytotoxicity against african green monkey Vero cells; assay type: toxicity, cell-based; conditions: chlorocebus sabaeus
Dihydrofolate reductase [9] = molecular target: T2, Dihydrofolate reductase (Staphylococcus aureus, UniProt P0A017); assay: Inhibition of wild type Staphylococcus aureus DHFR
Staphylococcus aureus [10] = assay: Antibacterial activity against Staphylococcus aureus harboring DHFR F98Y mutant; assay type: functional
Staphylococcus aureus [11] = assay: Antibacterial activity against Staphylococcus aureus ATCC 43300 harboring wild type DHFR; assay type: functional
Dihydrofolate reductase [12] = molecular target: T2, Dihydrofolate reductase; assay: Inhibition of Staphylococcus aureus DHFR
[13] = test system: Mycobacterium tuberculosis; assay: Antibacterial activity against Mycobacterium tuberculosis H37Ra; assay type: functional
Staphylococcus aureus [14] = assay: Antibacterial activity against Staphylococcus aureus RN4220 harboring wild type DHFR; assay type: functional
Staphylococcus aureus [15] = assay: Antibacterial activity against methicillin resistant Staphylococcus aureus CCARM3167; assay type: functional
Staphylococcus aureus [16] = assay: Antibacterial activity against Staphylococcus aureus ATCC 29213 harboring wild type DHFR; assay type: functional
[17] = Inhibition of Pseudomonas aeruginosa DHFR
Pseudomonas aeruginosa [18] = assay: Antibacterial activity against Pseudomonas aeruginosa PA01; assay type: functional
Pseudomonas aeruginosa [19] = assay: Synergistic antibacterial activity against Pseudomonas aeruginosa PA01 assessed as fractional inhibitory concentration index in presence of gallic acid; assay type: functional
Pseudomonas aeruginosa [20] = assay: Synergistic antibacterial activity against Pseudomonas aeruginosa PA01 assessed as fractional inhibitory concentration index in presence of protocatechuic acid; assay type: functional
Pseudomonas aeruginosa [21] = assay: Synergistic antibacterial activity against Pseudomonas aeruginosa PA01 assessed as fractional inhibitory concentration index in presence of quercetin; assay type: functional
Pseudomonas aeruginosa [22] = assay: Synergistic antibacterial activity against Pseudomonas aeruginosa PA01 assessed as fractional inhibitory concentration index in presence of myricetin; assay type: functional

T2 sequence (P0A017 whole entry): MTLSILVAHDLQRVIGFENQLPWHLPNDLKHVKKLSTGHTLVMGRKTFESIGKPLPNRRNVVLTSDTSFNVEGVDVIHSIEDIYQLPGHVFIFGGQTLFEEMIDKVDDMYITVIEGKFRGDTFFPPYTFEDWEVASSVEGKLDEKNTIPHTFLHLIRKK

CCC[C@H]1c2ccccc2C=NN1C(=O)/C=C/c1cc(Cc2cnc(N)nc2N)cc(OC)c1OC
IC50 [1]: 0.0018 µM

COc1ccc(-c2nc3ccccc3c(=O)[nH]2)cc1
IC50 (Dihydrofolate reductase [2]): 49.1 µM
MIC [3]: 125 µM and 31.5 µg/mL

O=c1[nH]c(=O)c2c(ncn2Cc2ccccc2)[nH]1
IC50 (Dihydrofolate reductase [2]): 38.6 µM
MIC [3]: 130 µM and 31.5 µg/mL

CCc1nc(N)nc(N)c1C#C[C@H](C)c1cc(OC)cc(-c2ccc(C(=O)O)cc2)c1
MIC [4]: < 0.072 µM
MIC [5]: < 0.072 µM

CCc1nc(N)nc(N)c1C#C[C@@H](C)c1cc(OC)cc(-c2ccc(C(=O)O)cc2)c1
MIC (Escherichia coli [6]): 24 µM (≈ 10 µg/mL)
MIC (Escherichia coli [7]): 0.0075 µM (≈ 0.00312 µg/mL)

CCc1nc(N)nc(N)c1C#CCc1cc(OC)cc(-c2ccc(C(=O)O)cc2)c1
MIC [4]: 0.311 µM (≈ 0.125 µg/mL)
MIC [5]: 1.24 µM (≈ 0.5 µg/mL)

Nc1nc(N)nc(-c2ccc(OCc3ccc(Cl)cc3)cc2)n1
MIC [4]: 1.76 µM (≈ 0.577 µg/mL)
CC50 [8]: 464 µM

CCCCc1nc(Cl)c(C2NC(=O)NC(C)=C2C(=O)Nc2ccc(F)cc2)[nH]1 (stereo not drawn)
IC50 (Dihydrofolate reductase [2]): > 24.6 µM
MIC [4]: 0.96 µM (≈ 0.39 µg/mL)

CCc1nc(N)nc(N)c1C#C[C@H](C)c1cc(OC)cc(-c2ccncc2)c1
IC50 (Dihydrofolate reductase [9]): 0.015 µM
IC50 [1]: 0.51 µM
MIC (Staphylococcus aureus [10]): 14 µM (≈ 5.22 µg/mL)
MIC (Staphylococcus aureus [11]): 0.874 µM (≈ 0.326 µg/mL)

Cc1ccc(CN2C(=O)/C(=C3\SC(=S)N(C(=O)O)C3=O)c3ccccc32)cc1
IC50 (Dihydrofolate reductase [12]): 0.46 µM

COc1cc(-c2nc(N)nc(N)n2)ccc1OCc1ccc(F)cc1
MIC [4]: 3.39 µM (≈ 1.16 µg/mL)
CC50 [8]: 360 µM

Nc1nc(N)c(-c2ccc(C(=O)Nc3cccc(OC(F)(F)F)c3)cc2)c(OCc2cncs2)n1
MIC [13]: 12.4 µM and 6.25 µg/mL

COc1ccc(-c2nc(N)nc(N)n2)cc1Oc1ccc(Cl)cc1
MIC [4]: 4.92 µM (≈ 1.69 µg/mL)
CC50 [8]: 335 µM

Nc1nc(N)c2c(ccc3c2ccn3Cc2ccc3ccccc3c2)n1
IC50 (Dihydrofolate reductase [2]): 0.00096 µM
MIC95 [4]: 3.12 µM (≈ 1.06 µg/mL)

CC[C@@H]1CC[C@H]2C(CC)(CC)[C@H](O)CC[C@]2(CC)[C@@]12Cc1c(O)cc3c(c1O2)COC3=O
IC50 (Dihydrofolate reductase [9]): 41.5 µM
MIC (Staphylococcus aureus [14]): 72.3 µM (≈ 32 µg/mL)
MIC (Staphylococcus aureus [15]): 72.3 µM (≈ 32 µg/mL)

CCc1nc(N)nc(N)c1C#C[C@@H](C)c1cc(OC)cc(-c2ccncc2)c1
IC50 (Dihydrofolate reductase [9]): 0.018 µM
IC50 [1]: 0.111 µM
MIC (Staphylococcus aureus [10]): 1.75 µM (≈ 0.653 µg/mL)
MIC (Staphylococcus aureus [11]): 0.11 µM (≈ 0.0411 µg/mL)

CCCc1cc(N)cc(N)c1Cc1cc(/C=C/C(=O)N2N=Cc3ccccc3C2C=C(C)C)c(OC)c(OC)c1 (stereo not drawn)
Ki (Dihydrofolate reductase [9]): 0.004 µM
MIC (Staphylococcus aureus [16]): 3.72 µM (≈ 2 µg/mL)

Nc1nc(N)c2cc(C(F)(F)F)ccc2n1
MIC99 [4]: 207 µM (≈ 47.2 µg/mL)

O=C(O[C@@H]1Cc2c(O)cc(O)cc2O[C@@H]1c1cc(O)c(O)c(O)c1)c1cc(O)c(O)c(O)c1 [EPIGALOCATECHIN GALLATE]
IC50 (Dihydrofolate reductase [2]): 10.9 µM
MIC [4]: 4.25 µM (≈ 1.95 µg/mL)

O=C(O)c1cc(O)c(O)c(O)c1 [GALLIC ACID]
IC50 [17]: 9620 µM

O=c1c(O)c(-c2cc(O)c(O)c(O)c2)oc2cc(O)cc(O)c12 [MYRICETIN]
MIC (Pseudomonas aeruginosa [18]): 1550 µM (≈ 493 µg/mL)
IC50 [17]: 520 µM

O=C(O)c1ccc(O)c(O)c1 [PROTOCATECHUIC ACID]
IC50 [17]: 10700 µM

O=c1c(O)c(-c2ccc(O)c(O)c2)oc2cc(O)cc(O)c12 [QUERCETIN]
MIC (Pseudomonas aeruginosa [18]): 1650 µM (≈ 499 µg/mL)
IC50 [17]: 595 µM

Cc1cc(NS(=O)(=O)c2ccc(N)cc2)no1 [SULFAMETHOXAZOLE]
MIC (Pseudomonas aeruginosa [18]): 500 µM (≈ 127 µg/mL)
fractional inhibitory concentration index (FICI) (Pseudomonas aeruginosa [19]): 0.38
IC50 [17]: 140 µM
fractional inhibitory concentration index (FICI) (Pseudomonas aeruginosa [20]): 0.25
fractional inhibitory concentration index (FICI) (Pseudomonas aeruginosa [21]): 0.38
fractional inhibitory concentration index (FICI) (Pseudomonas aeruginosa [22]): 0.38

COc1cc(Cc2cnc(N)nc2N)cc(OC)c1OC [TRIMETHOPRIM]
MIC (Pseudomonas aeruginosa [18]): 110 µM (≈ 31.9 µg/mL)
IC50 [17]: 88.7 µM
